# From patent publication EP0139005A1, “ANTITUMOR COMPOSITION, METHOD FOR TREATING TUMOR, AND USE OF THE COMPOSITION FOR TREATING TUMOR” (Yoshitomi Pharmaceutical Industries, Ltd., priority 1982, dated 1984)
# Columns and labels:
# IMC carcinoma = IMC carcinoma implanted intraperitoneally, survival (Experimental Example 1); assay type: in vivo, female CDF1 mice; settings: for 30-day Survivors / Average Survival Time / Life-Prolongation Ratio (%): once daily for seven days
# Method: A plurality of groups each consisting of five heads of female CDF1 mice (7-8 weeks old) were implanted intraperitoneally with 10^6 cells of IMC carcinoma. After 24 hours, Y-6430 was respectively administered once daily for seven days, and average survival times, life-prolongation ratios and 30-day survivors were calculated.
# (§1) The life-prolongation ratio was calculated by the following scheme (the same scheme is applied to the subsequent experimental examples).
# (§2) Life-prolongation Ratio [formula] T : Average survival days of the treated group
# (§3) C : Average survival days of the control group
# (§4) Animals survived over 30 days or longer were estimated as 30-day survivors, and the cases where T/C equals to or greater than 125% were regarded as effective.
# P388 leukemia = P388 leukemia implanted intraperitoneally, survival (Experimental Example 2); assay type: in vivo, female CDF1 mice; settings: for 30-day Survivors / Average Survival Time / Life-Prolongation Ratio (%): once daily for seven days
# Method: as §1, §2, §3, §4
# A plurality of groups each consisting of five heads of female CDF1 mice (7-8 weeks old) were respectively implanted intraperitoneally with 10^6 cells of P388 leukemia. After 24 hours, Y-6430 and ESCC were respectively administered once daily for seven days, and average survival days, life-prolongation ratios and 30-day survivors in each group were calculated.
# L1210 leukemia = L1210 leukemia implanted intraperitoneally, oral or subcutaneous treatment, survival (Experimental Example 4); assay type: in vivo, female CDF1 mice; settings: for Average Survival Time / Life-Prolongation Ratio (%): once daily for seven days
# Method: as §1, §2, §3, §4
# A plurality of groups each consisting of five female CDF1 mice (7-8 weeks old) were respectively implanted intraperitoneally with 10 cells of L1210 leukemia. After the next day of the implantation, the test animals were administered orally or subcutaneously once daily for seven days with Y-6430 or ESCC dissolved in physiological saline, and the average survival days and life-prolongation ratios in each group were calculated.
# All the test animals died of tumor within 30 days.
# Ehrlich carcinoma [1] = assay: Ehrlich carcinoma implanted intraperitoneally, survival (Experimental Example 6); assay type: in vivo, male ICR mice; settings: once daily for seven days
# Method: A plurality of groups each consisting of six male ICR mice (7-8 weeks old) were implanted intraperitoneally with 2 x 10^6 Ehrlich carcinoma. After 24 hours, Y-6430 dissolved in physiological saline was administered intraperitoneally once daily for seven days.
# Ehrlich carcinoma [2] = assay: Ehrlich carcinoma implanted subcutaneously, tumor weight (Experimental Example 7); assay type: in vivo, male ICR mice; settings: once daily for seven days, 24 hours after final administration, control 399.5 mg
# Method: A plurality of groups each consisting of six male ICR mice (7-8 weeks old) were respectively implanted subcutaneously with […] Ehrlich carcinoma. After 24 hours, Y-6430 dissolved in physiological saline was administered intraperitoneally once daily for seven days. 24 hours after the final administration, the test animals were killed by ether anesthesia, and the carcinoma of each test animal was exercised and weighed.
# sarcoma 180 = assay: Sarcoma 180 implanted intraperitoneally, survival (Experimental Example 9); assay type: in vivo, male ICR mice; settings: once daily for seven days
# Method: A plurality of groups each consisting of 12 male ICR mice (6-8 weeks old) were implanted intraperitoneally with 2 x 10^6 cells of sarcoma 180. After the next day to the implantation, Y-6430 was administered intraperitoneally or subcutaneously once daily for seven days.
# [3] = tested on: human breast carcinoma MX-1; assay: Human breast carcinoma MX-1 implanted into kidneys, tumor weight change (Experimental Example 10); assay type: in vivo, male Swiss nude mice; settings: 5th day and 9th day, tumor weight change on 11th day, experiment conducted by National Cancer Institute
# Method: A plurality of groups each consisting of six male Swiss nude mice as test groups and twelve of them as the control group were implanted into the respective kidneys with human breast carcinoma MX-1. Each of the animals was administered subcutaneously with Y-6430 dissolved in physiological saline on the next day to the implantation, 5th day and 9th day. On llth day, each of the weight of carcinoma was measured, and the tumor weight change (%) of the implanted carcinoma was calculated in accordance with the following scheme.
# [4] = Acute toxicity in mice (Experimental Example 11); settings: mouse, in vivo, ip; administered intraperitoneally, male ddn mice
# Method: (§5) Acute toxicity value when Y-6430 was administered intraperitoneally to male ddn mice was 1,500 mgjkg or more. 'Acute toxicity values when AH-44 carcinoma cells were implanted peritoneally and orally to Donryu rats were both 1,000 mg/kg or more.
# [5] = Acute toxicity in AH-44 carcinoma bearing rats (Experimental Example 11); settings: rat, in vivo, Donryu rats with AH-44 carcinoma cells
# Method: as §5
smiles,measurement,setting,value
"CCOC(=O)[C@@H](N)CSC(=O)NC.Cl [Y-6430, S-methylcarbamoyl-L-cysteine ethyl ester hydrochloride]",30-day Survivors,IMC carcinoma; 100 mg/kg/day i.p.,0/5
same,Average Survival Time,IMC carcinoma; 100 mg/kg/day i.p.,24.0 days
same,Life-Prolongation Ratio (%),IMC carcinoma; 100 mg/kg/day i.p.,218%
same,30-day Survivors,IMC carcinoma; 100 mg/kg/day p.o.,0/5
same,Average Survival Time,IMC carcinoma; 100 mg/kg/day p.o.,12.6 days
same,Life-Prolongation Ratio (%),IMC carcinoma; 100 mg/kg/day p.o.,115%
same,30-day Survivors,IMC carcinoma; 250 mg/kg/day i.p.,1/5
same,Average Survival Time,IMC carcinoma; 250 mg/kg/day i.p.,25.0 days
same,Life-Prolongation Ratio (%),IMC carcinoma; 250 mg/kg/day i.p.,227%
same,30-day Survivors,IMC carcinoma; 250 mg/kg/day p.o.,0/5
same,Average Survival Time,IMC carcinoma; 250 mg/kg/day p.o.,18.2 days
same,Life-Prolongation Ratio (%),IMC carcinoma; 250 mg/kg/day p.o.,165%
same,30-day Survivors,IMC carcinoma; 500 mg/kg/day i.p.,1/5
same,Average Survival Time,IMC carcinoma; 500 mg/kg/day i.p.,27.0 days
same,Life-Prolongation Ratio (%),IMC carcinoma; 500 mg/kg/day i.p.,245%
same,30-day Survivors,IMC carcinoma; 500 mg/kg/day p.o.,0/5
same,Average Survival Time,IMC carcinoma; 500 mg/kg/day p.o.,21.0 days
same,Life-Prolongation Ratio (%),IMC carcinoma; 500 mg/kg/day p.o.,191%
same,30-day Survivors,"IMC carcinoma; 1,000 mg/kg/day p.o.",0/5
same,Average Survival Time,"IMC carcinoma; 1,000 mg/kg/day p.o.",23.0 days
same,Life-Prolongation Ratio (%),"IMC carcinoma; 1,000 mg/kg/day p.o.",209%
same,effectiveness against IMC carcinoma,"IMC carcinoma; administered orally or intraperitoneally, T/C equal to or greater than 125% regarded as effective",effective
same,30-day Survivors,P388 leukemia; 100 mg/kg/day i.p.,0/5
same,Average Survival Time,P388 leukemia; 100 mg/kg/day i.p.,13.4 days
same,Life-Prolongation Ratio (%),P388 leukemia; 100 mg/kg/day i.p.,134%
same,30-day Survivors,P388 leukemia; 100 mg/kg/day p.o.,0/5
same,Average Survival Time,P388 leukemia; 100 mg/kg/day p.o.,11.6 days
same,Life-Prolongation Ratio (%),P388 leukemia; 100 mg/kg/day p.o.,116%
same,30-day Survivors,P388 leukemia; 250 mg/kg/day i.p.,0/5
same,Average Survival Time,P388 leukemia; 250 mg/kg/day i.p.,14.6 days
same,Life-Prolongation Ratio (%),P388 leukemia; 250 mg/kg/day i.p.,146%
same,30-day Survivors,P388 leukemia; 250 mg/kg/day p.o.,0/5
same,Average Survival Time,P388 leukemia; 250 mg/kg/day p.o.,13.4 days
same,Life-Prolongation Ratio (%),P388 leukemia; 250 mg/kg/day p.o.,134%
same,30-day Survivors,P388 leukemia; 500 mg/kg/day i.p.,0/5
same,Average Survival Time,P388 leukemia; 500 mg/kg/day i.p.,17.2 days
same,Life-Prolongation Ratio (%),P388 leukemia; 500 mg/kg/day i.p.,172%
same,30-day Survivors,P388 leukemia; 500 mg/kg/day p.o.,0/5
same,Average Survival Time,P388 leukemia; 500 mg/kg/day p.o.,15.0 days
same,Life-Prolongation Ratio (%),P388 leukemia; 500 mg/kg/day p.o.,150%
same,30-day Survivors,"P388 leukemia; 1,000 mg/kg/day p.o.",0/5
same,Average Survival Time,"P388 leukemia; 1,000 mg/kg/day p.o.",16.6 days
same,Life-Prolongation Ratio (%),"P388 leukemia; 1,000 mg/kg/day p.o.",166%
same,effectiveness against P388 leukemia,"P388 leukemia; summary of Tables 2 and 3, T/C equal to or greater than 125% regarded as effective",effective
same,Average Survival Time,L1210 leukemia; 100 mg/kg/day s.c.,8.2 days
same,Life-Prolongation Ratio (%),L1210 leukemia; 100 mg/kg/day s.c.,103%
same,Average Survival Time,L1210 leukemia; 250 mg/kg/day p.o.,9.4 days
same,Life-Prolongation Ratio (%),L1210 leukemia; 250 mg/kg/day p.o.,115%
same,Average Survival Time,L1210 leukemia; 250 mg/kg/day s.c.,9.2 days
same,Life-Prolongation Ratio (%),L1210 leukemia; 250 mg/kg/day s.c.,115%
same,Average Survival Time,L1210 leukemia; 500 mg/kg/day p.o.,11.4 days
same,Life-Prolongation Ratio (%),L1210 leukemia; 500 mg/kg/day p.o.,139%
same,Average Survival Time,L1210 leukemia; 500 mg/kg/day s.c.,10.8 days
same,Life-Prolongation Ratio (%),L1210 leukemia; 500 mg/kg/day s.c.,135%
same,Average Survival Time,"L1210 leukemia; 1,000 mg/kg/day p.o.",13.8 days
same,Life-Prolongation Ratio (%),"L1210 leukemia; 1,000 mg/kg/day p.o.",168%
same,effectiveness against L1210 leukemia,L1210 leukemia; oral and subcutaneous administration,effective
same,30-day Survivors,Ehrlich carcinoma [1]; 50 mg/kg/day i.p.,0/12
same,Average Survival Time,Ehrlich carcinoma [1]; 50 mg/kg/day i.p.,18.6 days
same,30-day Survivors,Ehrlich carcinoma [1]; 100 mg/kg/day i.p.,6/12
same,Average Survival Time,Ehrlich carcinoma [1]; 100 mg/kg/day i.p.,26.0 days
same,Average Tumor Weight,Ehrlich carcinoma [2]; 50 mg/kg/day i.p.,194.0 mg
same,Average Tumor Weight,Ehrlich carcinoma [2]; 100 mg/kg/day i.p.,146.6 mg
same,30-day Survivors,sarcoma 180; 50 mg/kg/day i.p.,0/12
same,Average Survival Time,sarcoma 180; 50 mg/kg/day i.p.,25.5 days
same,Number of Dead Animals,sarcoma 180; 50 mg/kg/day i.p.,0/12
same,30-day Survivors,sarcoma 180; 50 mg/kg/day s.c.,0/12
same,Average Survival Time,sarcoma 180; 50 mg/kg/day s.c.,21.9 days
same,Number of Dead Animals,sarcoma 180; 50 mg/kg/day s.c.,0/12
same,30-day Survivors,sarcoma 180; 100 mg/kg/day i.p.,5/12
same,Average Survival Time,sarcoma 180; 100 mg/kg/day i.p.,27.7 days
same,Number of Dead Animals,sarcoma 180; 100 mg/kg/day i.p.,0/12
same,30-day Survivors,sarcoma 180; 100 mg/kg/day s.c.,0/12
same,Average Survival Time,sarcoma 180; 100 mg/kg/day s.c.,23.0 days
same,Number of Dead Animals,sarcoma 180; 100 mg/kg/day s.c.,0/12
same,Proliferation Ratio (%),[3]; 225 mg/kg s.c. on next day,-70%
same,Proliferation Ratio (%),[3]; 450 mg/kg s.c. on next day,-64%
same,Proliferation Ratio (%),[3]; 900 mg/kg s.c. on next day,-65%
same,LD50,[4],≥ 1500 mg/kg
same,LD50,"[5]; ip, peritoneally",≥ 1000 mg/kg
same,LD50,"[5]; po, orally",≥ 1000 mg/kg
